# From PMC5118987 (Antimicrobial Agents and Chemotherapy, 2016)
# Read-outs that look alike come from different tables or passages of the source.
# Legend:
# [1] = system: inhibitor-selected HIV-1 IIIb passages; experiment: Phenotypic profile of selected HIV-1 passages; assay type: cell-based; conditions: Human immunodeficiency virus 1, IIIB
# [2] = system: HIV-1 IIIb; conditions: for PAEC95 (protein binding-adjusted EC95): EC95 in MT-4 with human serum shift; for EC95: MT-4 cells, calculated using Hill slope
# Method: Each compound series was prepared several times independently in quadruplicate to capture the variations in Hill slope associated with preparation of compound serial dilutions. The assay was performed in a 384-well format. MT-4 cells were infected in bulk at the same MOI as that described above, and the plates were developed with CellTiter-Glo reagent 5 days postinfection.
# [3] = system: HBV Production; experiment: microbe, parasite or virus in culture; conditions: Hepatitis B virus
# [4] = system: RSV strain A2; experiment: microbe, parasite or virus in culture; assay type: cell-based, respiratory syncytial virus; conditions: human respiratory syncytial virus, HEp-2
# [5] = system: INSTI-resistant HIV-1 mutants (HXB2); experiment: microbe, parasite or virus in culture; assay type: cell-based
# [6] = system: HIV-1 BaL; experiment: Antiviral assay in primary CD4+ T lymphocytes (p24 ELISA); conditions: Human immunodeficiency virus 1, BAL
# Source text: (§2) Freshly isolated human peripheral blood mononuclear cells (PBMCs) were obtained from healthy volunteers (supplied by AllCells, Inc., Alameda, CA). Blood donors were negative for HIV-1, hepatitis B, and hepatitis C viral infections. CD4^+ T lymphocytes were isolated by negative selection using a magnetically labeled antibody cocktail ([sequence] Technologies Inc., Vancouver, Canada) and cultured in RPMI cell culture media (Life Technologies, Grand Island, NY) supplemented with 10% FBS. CD4^+ T cells were activated for 48 h at 37°C by addition of 1 μg/ml phytohemagglutinin (PHA; Sigma, St. Louis, MO) and 5 ng/ml interleukin-2 (IL-2; Roche Diagnostics, Indianapolis, IN).
# (§3) A 3-fold serial dilution of test compounds in RPMI medium was added to triplicate wells and incubated at 37°C for 5 days. Human monocytes were seeded on 96-well plates at a density of 3 × 10^5 cells per well, differentiated into adherent macrophages, and then infected with HIV-1 BaL virus in 50 μl RPMI for 3 h at 37°C. […] The supernatants derived from the CD4^+ T-cell and macrophage cultures were harvested 6 and 12 days postinfection, respectively, and the amount of HIV present was quantified by p24 enzyme-linked immunosorbent assay (ELISA) (PerkinElmer, Waltham, MA).
# [7] = Cytotoxicity assay in MT-4 cells; assay type: cell-based; conditions: human, uninfected MT-4 cells
# Method: (§1) For the antiviral assay utilizing MT-2 and MT-4 cells, 50 μl of a 2× test concentration of 5-fold serially diluted compound in culture medium with 10% FBS was added to each well of a 96-well plate (9 concentrations) in triplicate. MT-2 and MT-4 cells were infected with HIV-1 IIIb at a multiplicity of infection (MOI) of 0.01 for 3 h. Fifty microliters of infected cell suspension in culture medium with 10% FBS (∼1.5 × 10^4 cells) then was added to each well containing 50 μl of diluted compound. The plates were then incubated at 37°C for 5 days. After 5 days of incubation, 100 μl of CellTiter-Glo reagent (Promega Biosciences, Inc., Madison, WI) was added to each well containing MT-2 or MT-4 cells. Cell lysis was carried out by incubation at room temperature for 10 min and chemiluminescence was read. For compound cytotoxicity assessment, the protocol was identical except that uninfected cells were used and compounds were serially diluted 3-fold.
# [8] = system: HIV-1 BaL; conditions: primary CD4+ T-cells, 35 days, drug at tissue culture equivalent clinical Cmin (FTC 160 × EC50)
# [9] = system: Influenza B/LEE/40; experiment: microbe, parasite or virus in culture; assay type: cell-based; conditions: NHBE
# [10] = system: HIV-1 IIIb; experiment: Antiviral assay in MT-2 cells; assay type: cell-based
# Method: as §1
# [11] = system: HCV 1b Replicon; experiment: Anti-HCV activity, HCV 1b replicon; conditions: Hepatitis C virus, Huh-7
# [12] = system: HIV-1 BaL; experiment: Antiviral assay in monocyte-derived macrophages (p24 ELISA); conditions: Human immunodeficiency virus 1, BAL, Macrophage
# Source text: as §2, §3
# [13] = system: HIV-1 IIIb; experiment: Antiviral assay in MT-4 cells; assay type: cell-based; conditions: Human immunodeficiency virus 1, MT4, 120 h, 5 days
# Method: as §1
# [14] = system: HIV-1 IIIb; experiment: HIV breakthrough selection in MT-2 cells; conditions: MT-2, HIV-1 IIIb; FTC 4× EC95, EVG 5× EC95, BIC and DTG 2.5× and 5× EC95; up to day 32
# [15] = system: HCV 2a Replicon; experiment: Anti-HCV activity, HCV 2a replicon; conditions: Hepatitis C virus, Huh-7
# [16] = system: HIV-1 clonal variants; experiment: PhenoSense integrase assay, clonal variants from EVG/COBI/FTC/TDF virologic failures; assay type: cell-based; conditions: Human immunodeficiency virus 1, NL43, read-out: mean EC50 of wild-type virus
# Source text: Clonal Analysis of HIV-1 from Patients. Plasma from 16 patients treated in Studies GS-US-236-0102 and GS-US-236-0103 with confirmed virologic failure and resistance development in the HIV-1 integrase gene were sent to Monogram Biosciences (South San Francisco, CA) for clonal analysis. The HIV-1 RNA was isolated and the cDNA was synthesized using Monogram proprietary primers. Using proprietary primers, PCR amplification of the entire protease, reverse transcriptase, and integrase coding regions of the pol gene were performed. PCR products were inserted into T/A cloning vectors.
# Approximately 20 clones were chosen per patient sample for sequencing using proprietary primers. A subset of clones was chosen for phenotypic analysis based on the presence of INSTI resistance mutations. Resistance test vectors containing the patient-derived integrase coding region from selected clones were constructed using standard Monogram Biosciences protocols. […]
# values) in these clones were obtained through a contract study by Monogram Biosciences using the PhenoSense integrase assay. The fold-change from the NL4-3 wild-type reference vector values was determined.
# [17] = 480 h, selected virus EVG P2 (day 20, 7.2 nM)
# [18] = selected virus BIC P3 (day 47, 6 nM)
# [19] = selected virus BIC P5 (day 71, 12 nM)
# [20] = selected virus BIC P6 (day 86, 24 nM)
# [21] = selected virus BIC P8 (day 156, 96 nM)
# [22] = selected virus BIC P9 (day 181, 192 nM)
# [23] = selected virus BIC P10 (day 234, 384 nM)
# [24] = selected virus DTG P3Lo (day 59, 6.4 nM)
# [25] = selected virus DTG P4 (day 87, 9.6 nM)
# [26] = selected virus DTG P5 (day 97, 14.4 nM)
# [27] = selected virus DTG P7 (day 139, 32.4 nM)
# [28] = selected virus DTG P9 (day 174, 72.9 nM)
# [29] = selected virus DTG P10 (day 202, 109.4 nM)
# [30] = selected virus EVG P4 (day 41, 28.8 nM)
# [31] = selected virus EVG P6 (day 56, 115 nM)
# [32] = selected virus EVG P7 (day 67, 230 nM)
# [33] = selected virus EVG P9 (day 94, 922 nM)
# [34] = selected virus EVG P10 (day 119, 1843 nM)
# [35] = Human immunodeficiency virus 1, HXB2, IN mutant E92Q
# [36] = Human immunodeficiency virus 1, HXB2, IN mutant E92Q/N155H
# [37] = Human immunodeficiency virus 1, HXB2, IN mutant E138K/Q148K
# [38] = Human immunodeficiency virus 1, HXB2, IN mutant G140S/Q148R
# [39] = Human immunodeficiency virus 1, HXB2, IN mutant M50I (BIC/DTG selection)
# [40] = Human immunodeficiency virus 1, HXB2, IN mutant M50I/R263K (BIC selection)
# [41] = Human immunodeficiency virus 1, HXB2, IN mutant M50I/S119R/R263K (DTG selection)
# [42] = Human immunodeficiency virus 1, HXB2, IN mutant N155H
# [43] = Human immunodeficiency virus 1, HXB2, IN mutant N155H/Q148R
# [44] = Human immunodeficiency virus 1, HXB2, IN mutant Q148R
# [45] = Human immunodeficiency virus 1, HXB2, IN mutant R263K (BIC/DTG selection), Table 7
# [46] = Human immunodeficiency virus 1, HXB2, IN mutant R263K, Table 6
# [47] = Human immunodeficiency virus 1, HXB2, IN mutant S119R (DTG selection)
# [48] = Human immunodeficiency virus 1, HXB2, IN mutant S119R/R263K (DTG selection)
# [49] = Human immunodeficiency virus 1, HXB2, IN mutant S153Y (DTG selection)
# [50] = Human immunodeficiency virus 1, HXB2, IN mutant S153Y/R263K (DTG selection)
# [51] = Human immunodeficiency virus 1, HXB2, IN mutant Y143R
# [52] = Human immunodeficiency virus 1, HXB2, WT (HXB2), Table 6, read-out: EC50
# [53] = Human immunodeficiency virus 1, MT2, 120 h, MT-2 cells, HIV-1 IIIb, 5 days, read-out: EC50
structure (smiles),measurement,setting,value
"C[C@@H]1CCO[C@H]2Cn3cc(C(=O)NCc4ccc(F)cc4F)c(=O)c(O)c3C(=O)N12 [DTG, Dolutegravir]",EC50,[1]; [17],5.4 nM
same,EC50,[1]; HIV-1-IIIb (unselected),2.5 nM
same,EC50,[1]; [18],3.6 nM
same,EC50,[1]; [19],6.4 nM
same,EC50,[1]; [20],8.3 nM
same,EC50,[1]; [21],12 nM
same,EC50,[1]; [22],19.1 nM
same,EC50,[1]; [23],14.7 nM
same,EC50,[1]; [24],3.2 nM
same,EC50,[1]; [25],7.8 nM
same,EC50,[1]; [26],10.3 nM
same,EC50,[1]; [27],12.4 nM
same,EC50,[1]; [28],15.6 nM
same,EC50,[1]; [29],19.7 nM
same,EC50,[1]; [30],7.1 nM
same,EC50,[1]; [31],7.1 nM
same,EC50,[1]; [32],8.1 nM
same,EC50,[1]; [33],6.6 nM
same,EC50,[1]; [34],3.5 nM
same,PAEC95 (protein binding-adjusted EC95),[2],204 nM
same,EC95,[2],7.4 nM
same,EC50,[3],> 50000 nM
same,EC50,[4],> 50000 nM
same,EC50,[5]; [35],1.8 ± 0.5 nM
same,EC50,[5]; [36],2.8 ± 0.6 nM
same,EC50,[5]; [37],13.7 ± 2.1 nM
same,EC50,[5]; [38],6.5 ± 1.2 nM
same,EC50,[5]; [39],2 ± 0.2 nM
same,EC50,[5]; [40],3.6 ± 0.5 nM
same,EC50,[5]; [41],6.2 ± 2.4 nM
same,EC50,[5]; [42],2.4 ± 0.6 nM
same,EC50,[5]; [43],4.7 ± 1.5 nM
same,EC50,[5]; [44],1 ± 0.3 nM
same,EC50,[5]; [45],3.6 ± 0.4 nM
same,EC50,[5]; [46],2.5 ± 0.4 nM
same,EC50,[5]; [47],2.1 ± 0.7 nM
same,EC50,[5]; [48],3.6 ± 0.8 nM
same,EC50,[5]; [49],4 ± 1.1 nM
same,EC50,[5]; [50],6.4 ± 0.8 nM
same,EC50,[5]; [51],1.9 ± 0.5 nM
same,EC50,[5]; [52],1.4 ± 0.3 nM
same,levels of resistance of double IN mutants,[5]; {},2.1-10 fold
same,EC50,[6],1 ± 0.3 nM
same,CC50 at 5 days,[7],14700 nM
same,Frequency of Viral Breakthrough with RAMs,[8],0%
same,p24+ Wells,[8],0/24
same,EC50,[9],15100 nM
same,EC50,"[10]; Human immunodeficiency virus 1, IIIB, MT2, Table S9 footnote b, read-out: EC50 previously determined (start of resistance selection at twice the EC50)",1.6 nM
same,EC50,[10]; [53],1.5 ± 0.2 nM
same,EC50,[11],> 44000 nM
same,EC50,[12],3.1 ± 2.5 nM
same,EC50,[13],1.5 ± 0.3 nM
same,day postinfection of HIV-1 breakthrough,[14],no virus breakthrough was observed
same,EC50,[15],> 44000 nM
"O=C(NCc1c(F)cc(F)cc1F)c1cn2c(c(O)c1=O)C(=O)N1[C@H]3CC[C@H](C3)O[C@@H]1C2 [BIC, Bictegravir]",EC50,[1]; [17],5.8 nM
same,EC50,[1]; HIV-1-IIIb (unselected),2.2 nM
same,EC50,[1]; [18],3.8 nM
same,EC50,[1]; [19],5.8 nM
same,EC50,[1]; [20],7.8 nM
same,EC50,[1]; [21],11.2 nM
same,EC50,[1]; [22],17.5 nM
same,EC50,[1]; [23],13.5 nM
same,EC50,[1]; [24],2.9 nM
same,EC50,[1]; [25],7.8 nM
same,EC50,[1]; [26],10.6 nM
same,EC50,[1]; [27],21.8 nM
same,EC50,[1]; [28],23.8 nM
same,EC50,[1]; [29],30 nM
same,EC50,[1]; [30],6.5 nM
same,EC50,[1]; [31],6.8 nM
same,EC50,[1]; [32],8.9 nM
same,EC50,[1]; [33],6.8 nM
same,EC50,[1]; [34],2.9 nM
same,PAEC95 (protein binding-adjusted EC95),[2],361 nM
same,EC95,[2],8.3 nM
same,EC50,[3],> 50000 nM
same,EC50,[4],> 50000 nM
same,EC50,[5]; [35],2 ± 0.8 nM
same,EC50,[5]; [36],2 ± 0.2 nM
same,EC50,[5]; [37],13.7 ± 1.2 nM
same,EC50,[5]; [38],3.1 ± 0.8 nM
same,EC50,[5]; [39],1.9 ± 0.3 nM
same,EC50,[5]; [40],4.2 ± 0.9 nM
same,EC50,[5]; [41],6.4 ± 1.6 nM
same,EC50,[5]; [42],1.6 ± 0.4 nM
same,EC50,[5]; [43],7.1 ± 4.3 nM
same,EC50,[5]; [44],1 ± 0.3 nM
same,EC50,[5]; [45],3.2 ± 0.7 nM
same,EC50,[5]; [46],2.9 ± 0.7 nM
same,EC50,[5]; [47],2.7 ± 0.7 nM
same,EC50,[5]; [48],4.2 ± 1.3 nM
same,EC50,[5]; [49],3.9 ± 0.7 nM
same,EC50,[5]; [50],8.3 ± 1.4 nM
same,EC50,[5]; [51],1.8 ± 0.5 nM
same,EC50,[5]; [52],1.6 ± 0.4 nM
same,EC50,"[5]; Human immunodeficiency virus 1, HXB2, WT (HXB2), Table 7, read-out: EC50",1.5 ± 0.3 nM
same,cross-resistance to single-mutant HIV-1 variants,[5]; {},1-2 fold
same,EC50,[6],1.5 ± 0.3 nM
same,CC50 at 5 days,[7],3660 nM
same,Frequency of Viral Breakthrough with RAMs,[8],0%
same,p24+ Wells,[8],0/24
same,EC50,[16],1.55 nM
same,EC50,[9],37200 nM
same,EC50,"[10]; Human immunodeficiency virus 1, IIIB, MT2, T-cell lines and primary human T lymphocytes, read-out: 50% effective concentrations",1.5 to 2.4 nM
same,EC50,[10]; [53],1.5 ± 0.2 nM
same,EC50,[11],> 44000 nM
same,EC50,[12],6.6 ± 4.1 nM
same,EC50,[13],2.4 ± 0.4 nM
same,day postinfection of HIV-1 breakthrough,[14],no virus breakthrough was observed
same,EC50,[15],> 44000 nM
